Measurements: patent US10196556B2, “Surfactant composition” (RHODIA OPERATIONS, priority 2012, dated 2019)
Like-named read-outs stand apart in the source and are kept apart here.

Test: Static foam test (Waring blender), foam persistence
Type: physicochemical
Conditions: for Foam Volume: ambient temperature; for Foam Quality (%): from flash foam volume and 200 ml solution volume
Procedure: In order to perform static foam testing, 10% aqueous stock solutions of the surfactant compositions were prepared in distilled water. These were added to 10% w/w aqueous sodium chloride solution, such that the concentration of the surfactant in the brine was 1000 ppm.
Surfactant compositions according to the invention were benchmarked against the individual surfactants. A Waring type blender was used.
The flash foam volumes were measured by taking 200 ml of a surfactant composition according to the invention, subjecting it to high shear for 30 seconds at ambient temperature (20° C.) and then transferring the foam immediately to a measuring cylinder (1000 ml) for measurement. This initial volume was the flash volume. The foam and liquid volume was monitored for a further 10 minutes.
The ‘half-life’ of the foam was defined as the time taken for 100 ml of fluid to drain from the foam. Without being bound by theory, an increase in the half-life corresponds to a reduction in the liquid drainage rate and reflects the texture of the foam. Denser foams, as a rule, tend to take longer to drain and therefore are more persistent.
Static foam tests are a rapid and relatively straightforward method to screen the foam performance of surfactants. The method provides information on the stability and quality, i.e. texture (structure), of the foam produced in a Waring blender. The mechanical properties of the foam lamellae and foam structure are determined to some extent by the packing of the surfactant molecules at the gas/liquid interface. The foam structure influences liquid drainage rates and therefore, the persistence or stability of the foam.
Surfactant solutions (200 ml) were subjected to high shear for 30 seconds at ambient temperatures and the foam transferred immediately to a measuring cylinder (1000 ml). The foam and liquid volume was monitored for a further 10 minutes. 10% active aqueous stock solutions of the surfactants were prepared in distilled water and these were added to 10% w/w aqueous sodium chloride solution. The concentration of the surfactant in the brine was 1000 ppm.
The initial foam volume is also called the ‘flash’ foam.

[1] = 0 s (flash foam), 1000 ppm surfactant in 10% w/w NaCl
[2] = 120 s, 1000 ppm surfactant in 10% w/w NaCl
[3] = 240 s, 1000 ppm surfactant in 10% w/w NaCl
[4] = 360 s, 1000 ppm surfactant in 10% w/w NaCl
[5] = 480 s, 1000 ppm surfactant in 10% w/w NaCl
[6] = 600 s, 1000 ppm surfactant in 10% w/w NaCl
[7] = 1000 ppm surfactant in 10% w/w NaCl
[8] = time for 100 ml of fluid to drain from the foam, 1000 ppm surfactant in 10% w/w NaCl

With “Sodium hydroxypropyl sulfonate lauryl glucose crosspolymer [PolySugaNate 160P]” the “Half-life” value was 0.4 min.
With Lauramidopropyl betaine [Mackam LMB] the “Foam Volume” value [1] was 670 mL, the “Foam Volume” value [2] was 524 mL and the “Foam Volume” value [3] was 486 mL. For the same substance, the “Foam Volume” value [4] was 430 mL, the “Foam Volume” value [5] was 360 mL and the “Foam Volume” value [6] was 350 mL. For the same substance, the “Foam Quality (%)” value [7] was 70.1% and the “Half-life” value [8] was 4.5 min.
With “Lauramidopropyl hydroxysultaine [Mackam LSB-50]” the “Foam Volume” value [1] was 600 mL, the “Foam Volume” value [2] was 406 mL and the “Foam Volume” value [3] was 350 mL. For the same substance, the “Foam Volume” value [4] was 280 mL, the “Foam Volume” value [5] was 240 mL and the “Foam Volume” value [6] was 210 mL. For the same substance, the “Foam Quality (%)” value [7] was 66.7% and the “Half-life” value [8] was 3.2 min.
